Measured values from US20080009418A1, “Selective Inhibitors” (Alchemia LTD., priority 2004, published 2008).

Tests used:
[1] = target: T1, Human δ-opioid (DOP) (Homo sapiens, UniProt P41143); assay: Radioligand binding, human δ-opioid (DOP) membranes, FlashPlate, [3H]-Bremazocine; conditions: compound at 10 μM, [3H]-Bremazocine
T1 construct: purchased Perkin Elmer Biosignal
Summary of the method: (§1)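 Cloned human receptor membranes were coated onto FlashPlate wells and incubated with radioligand and compound (added from a 0.5 mM DMSO daughter plate) for 1 hour at room temperature in the dark. Scintillation counting gave percent inhibition, with DMSO defining total and reference ligand defining non-specific binding.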

[2] = target: T2, Human neurokinin (NK1) (Homo sapiens, UniProt P25103); assay: Radioligand binding, human neurokinin NK1 membranes, filtration, [125I]-Substance P; conditions: compound at 10 μM, [125I]-Substance P
T2 construct: purchased Perkin Elmer Biosignal
T2 sequence (P25103 whole entry): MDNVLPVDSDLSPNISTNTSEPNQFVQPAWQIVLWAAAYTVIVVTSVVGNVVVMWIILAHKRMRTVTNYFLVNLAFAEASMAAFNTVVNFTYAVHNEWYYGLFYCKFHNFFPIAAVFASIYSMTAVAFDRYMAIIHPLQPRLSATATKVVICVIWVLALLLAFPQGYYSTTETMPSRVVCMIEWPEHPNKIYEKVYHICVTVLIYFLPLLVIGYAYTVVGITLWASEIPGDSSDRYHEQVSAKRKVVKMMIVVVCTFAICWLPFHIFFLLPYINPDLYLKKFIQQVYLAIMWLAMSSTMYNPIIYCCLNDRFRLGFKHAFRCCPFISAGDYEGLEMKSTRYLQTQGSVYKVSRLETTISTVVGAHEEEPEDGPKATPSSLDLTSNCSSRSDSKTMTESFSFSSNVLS
Summary of the method: (§2)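 Filtration binding on cloned human receptor membranes (1 Unit/well), [125I]-Substance P for NK1 and [3H]-Diprenorphine for KOP, 1 h at room temperature. Filters PEI-presoaked, washed with cold 50 mM Tris-HCl pH 7.4, counted by scintillation; percent inhibition calculated, reference ligand defining non-specific binding.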

[3] = target: T3, Human melanin-concentrating hormone (MCH1) (Homo sapiens, UniProt Q99705); assay: Radioligand binding, human melanin-concentrating hormone MCH1 membranes, FlashPlate, [125I]-S36057; conditions: compound at 10 μM
T3 construct: purchased Perkin Elmer Biosignal
T3 sequence (Q99705 whole entry): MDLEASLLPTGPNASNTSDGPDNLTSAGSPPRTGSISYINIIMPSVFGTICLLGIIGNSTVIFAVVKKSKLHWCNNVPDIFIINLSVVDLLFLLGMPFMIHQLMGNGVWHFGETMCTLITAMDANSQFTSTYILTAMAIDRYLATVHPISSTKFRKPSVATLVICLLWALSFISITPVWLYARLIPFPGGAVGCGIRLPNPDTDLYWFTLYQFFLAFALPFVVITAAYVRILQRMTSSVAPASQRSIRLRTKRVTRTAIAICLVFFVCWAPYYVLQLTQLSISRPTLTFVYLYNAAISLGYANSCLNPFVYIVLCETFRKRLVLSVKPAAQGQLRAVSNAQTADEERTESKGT
Summary of the method: as §1

[4] = target: T4, Human neuropeptide Y (NPY-Y1) (Homo sapiens, UniProt P25929); assay: Radioligand binding, human neuropeptide Y NPY-Y1 membranes, FlashPlate, [125I]-PYY; conditions: compound at 10 μM, [125I]-PYY
T4 construct: purchased Perkin Elmer Biosignal
T4 sequence (P25929 1-384): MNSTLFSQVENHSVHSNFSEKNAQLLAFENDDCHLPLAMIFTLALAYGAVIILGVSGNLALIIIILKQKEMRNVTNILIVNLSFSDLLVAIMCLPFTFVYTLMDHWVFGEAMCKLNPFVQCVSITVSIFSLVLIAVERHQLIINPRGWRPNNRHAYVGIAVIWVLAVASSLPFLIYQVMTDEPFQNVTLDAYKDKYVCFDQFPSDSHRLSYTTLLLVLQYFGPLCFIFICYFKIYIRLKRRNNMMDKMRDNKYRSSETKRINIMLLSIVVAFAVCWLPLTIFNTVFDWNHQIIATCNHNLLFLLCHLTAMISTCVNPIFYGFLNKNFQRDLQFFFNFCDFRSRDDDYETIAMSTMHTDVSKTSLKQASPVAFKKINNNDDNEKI
Summary of the method: as §1

[5] = target: T5, Human Melanocortin (MC4) (Homo sapiens, UniProt P32245); assay: Radioligand binding, human melanocortin MC4 membranes, FlashPlate, [125I]-NDP-αMSH; conditions: compound at 10 μM, [125I]-NDP-αMSH
T5 construct: purchased Perkin Elmer Biosignal
T5 sequence (P32245 whole entry): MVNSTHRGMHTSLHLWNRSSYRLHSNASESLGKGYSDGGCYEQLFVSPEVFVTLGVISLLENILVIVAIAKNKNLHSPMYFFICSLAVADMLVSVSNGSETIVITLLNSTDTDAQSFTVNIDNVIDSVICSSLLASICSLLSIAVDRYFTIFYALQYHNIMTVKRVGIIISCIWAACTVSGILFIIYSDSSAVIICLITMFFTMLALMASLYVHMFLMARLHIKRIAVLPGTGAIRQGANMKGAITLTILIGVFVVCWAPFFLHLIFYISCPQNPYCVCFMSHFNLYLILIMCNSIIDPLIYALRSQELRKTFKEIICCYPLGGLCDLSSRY
Summary of the method: as §1

[6] = target: T6, Human opioid (ORL1) (Homo sapiens, UniProt P41146); assay: Radioligand binding, human opioid ORL1 membranes, FlashPlate, [125I]-Nociceptin; conditions: compound at 10 μM, [125I]-Nociceptin
T6 construct: purchased Perkin Elmer Biosignal
T6 sequence (P41146 whole entry): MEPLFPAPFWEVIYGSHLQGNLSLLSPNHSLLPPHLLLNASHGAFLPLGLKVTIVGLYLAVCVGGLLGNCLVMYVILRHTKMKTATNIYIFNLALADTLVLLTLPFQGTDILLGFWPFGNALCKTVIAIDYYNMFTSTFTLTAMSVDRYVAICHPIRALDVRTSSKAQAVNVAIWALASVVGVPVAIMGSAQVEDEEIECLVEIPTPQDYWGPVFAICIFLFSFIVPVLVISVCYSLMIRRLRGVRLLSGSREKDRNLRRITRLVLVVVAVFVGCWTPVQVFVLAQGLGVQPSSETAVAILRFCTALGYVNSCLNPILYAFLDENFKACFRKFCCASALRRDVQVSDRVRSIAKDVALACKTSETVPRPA
Summary of the method: as §1

[7] = target: T7, Human μ-opioid (MOP) (Homo sapiens, UniProt P35372); assay: Radioligand binding, human μ-opioid (MOP) membranes, FlashPlate, [3H]-Naloxone; conditions: compound at 10 μM, [3H]-Naloxone
T7 construct: purchased Perkin Elmer Biosignal
T7 sequence (P35372 whole entry): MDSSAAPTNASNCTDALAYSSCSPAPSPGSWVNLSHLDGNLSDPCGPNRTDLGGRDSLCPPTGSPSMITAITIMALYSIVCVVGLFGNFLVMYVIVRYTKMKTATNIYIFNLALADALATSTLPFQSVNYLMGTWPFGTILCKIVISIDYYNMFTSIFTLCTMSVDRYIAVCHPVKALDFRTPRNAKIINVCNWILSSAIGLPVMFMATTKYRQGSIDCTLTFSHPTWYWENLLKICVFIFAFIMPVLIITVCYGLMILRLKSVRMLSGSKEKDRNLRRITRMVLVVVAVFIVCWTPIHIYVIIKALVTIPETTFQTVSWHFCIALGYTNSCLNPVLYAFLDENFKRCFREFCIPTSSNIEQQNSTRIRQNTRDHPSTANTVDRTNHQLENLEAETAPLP
Summary of the method: as §1

[8] = target: T8, Human κ-Opioid (KOP) (Homo sapiens, UniProt P41145); assay: Radioligand binding, human κ-opioid (KOP) membranes, filtration, [3H]-Diprenorphine; conditions: compound at 10 μM, [3H]-Diprenorphine
T8 construct: purchased Perkin Elmer Biosignal
T8 sequence (P41145 whole entry): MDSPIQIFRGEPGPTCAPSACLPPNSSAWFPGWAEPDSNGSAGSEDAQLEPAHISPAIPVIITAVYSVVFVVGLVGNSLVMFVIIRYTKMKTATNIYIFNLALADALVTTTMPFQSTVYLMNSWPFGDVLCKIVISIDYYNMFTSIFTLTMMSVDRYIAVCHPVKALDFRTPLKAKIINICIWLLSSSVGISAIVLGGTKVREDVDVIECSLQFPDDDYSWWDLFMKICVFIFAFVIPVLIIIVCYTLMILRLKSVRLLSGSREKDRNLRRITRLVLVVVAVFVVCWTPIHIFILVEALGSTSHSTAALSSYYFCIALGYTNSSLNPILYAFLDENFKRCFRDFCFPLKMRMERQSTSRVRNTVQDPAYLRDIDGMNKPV
Summary of the method: as §2

[9] = target: T9, Mouse urotensin (mUR2) (Mus musculus, UniProt Q8VIH9); assay: Radioligand binding, mouse urotensin mUR2 membranes, FlashPlate, [125I]-Urotensin II; conditions: compound at 10 μM, [125I]-Urotensin II
T9 construct: purchased Perkin Elmer Biosignal
T9 sequence (Q8VIH9 1-385): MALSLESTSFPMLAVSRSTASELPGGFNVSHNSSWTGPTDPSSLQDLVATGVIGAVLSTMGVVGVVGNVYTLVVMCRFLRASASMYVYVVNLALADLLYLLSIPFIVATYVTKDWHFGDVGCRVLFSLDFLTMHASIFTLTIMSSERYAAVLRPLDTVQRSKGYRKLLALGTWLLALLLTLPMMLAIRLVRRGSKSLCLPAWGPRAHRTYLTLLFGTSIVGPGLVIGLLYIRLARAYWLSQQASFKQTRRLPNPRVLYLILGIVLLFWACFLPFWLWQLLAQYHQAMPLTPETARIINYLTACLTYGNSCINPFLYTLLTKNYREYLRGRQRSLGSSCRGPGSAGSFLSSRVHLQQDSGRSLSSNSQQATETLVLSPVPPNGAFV
Summary of the method: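 Cloned mouse urotensin (mUR2) receptor membranes from Perkin Elmer Biosignal were immobilized in FlashPlate microplates using a proprietary coating. Each well got 19.5 μl buffer, then 0.5 μl of DMSO, reference ligand, or compound. Adding 5 μl of [125I]-Urotensin II, diluted to 5× final concentration in binding buffer, started binding. Plates were sealed with TopSeal-A and incubated 1 hour at room temperature in the dark. Wells were counted for 30 seconds each on a TopCount after a 60-second delay, and percentage inhibition was calculated.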

[10] = target: T10, Human melanocortin (MC5) (Homo sapiens, UniProt P33032); assay: Radioligand binding, human melanocortin MC5 membranes, FlashPlate, [125I]-NDP-αMSH; conditions: compound at 10 μM, [125I]-NDP-αMSH
T10 construct: purchased Perkin Elmer Biosignal
T10 sequence (P33032 whole entry): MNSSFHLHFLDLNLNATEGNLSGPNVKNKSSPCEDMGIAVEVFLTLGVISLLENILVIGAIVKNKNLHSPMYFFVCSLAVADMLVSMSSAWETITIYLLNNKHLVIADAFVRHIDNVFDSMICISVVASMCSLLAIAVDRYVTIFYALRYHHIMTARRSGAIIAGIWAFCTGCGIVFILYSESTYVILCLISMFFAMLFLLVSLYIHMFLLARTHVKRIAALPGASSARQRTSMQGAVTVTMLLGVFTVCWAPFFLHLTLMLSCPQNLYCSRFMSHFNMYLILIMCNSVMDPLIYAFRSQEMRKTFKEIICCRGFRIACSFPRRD
Summary of the method: as §1

[11] = target: T11, Human Melanocortin (MC3) (Homo sapiens, UniProt P41968); assay: Radioligand binding, human melanocortin MC3 membranes, FlashPlate, [125I]-NDP-αMSH; conditions: compound at 10 μM, [125I]-NDP-αMSH
T11 construct: purchased Perkin Elmer Biosignal
T11 sequence (P41968 whole entry): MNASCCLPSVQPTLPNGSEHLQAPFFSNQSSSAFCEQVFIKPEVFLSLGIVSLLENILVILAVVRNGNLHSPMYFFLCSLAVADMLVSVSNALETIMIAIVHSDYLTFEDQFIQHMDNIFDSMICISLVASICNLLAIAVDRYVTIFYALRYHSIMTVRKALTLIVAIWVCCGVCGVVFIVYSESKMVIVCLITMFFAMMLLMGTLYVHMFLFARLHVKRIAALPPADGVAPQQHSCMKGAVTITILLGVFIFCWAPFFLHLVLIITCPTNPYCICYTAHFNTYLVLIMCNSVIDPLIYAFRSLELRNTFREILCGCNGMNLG
Summary of the method: as §1

T1 sequence (P41143 whole entry): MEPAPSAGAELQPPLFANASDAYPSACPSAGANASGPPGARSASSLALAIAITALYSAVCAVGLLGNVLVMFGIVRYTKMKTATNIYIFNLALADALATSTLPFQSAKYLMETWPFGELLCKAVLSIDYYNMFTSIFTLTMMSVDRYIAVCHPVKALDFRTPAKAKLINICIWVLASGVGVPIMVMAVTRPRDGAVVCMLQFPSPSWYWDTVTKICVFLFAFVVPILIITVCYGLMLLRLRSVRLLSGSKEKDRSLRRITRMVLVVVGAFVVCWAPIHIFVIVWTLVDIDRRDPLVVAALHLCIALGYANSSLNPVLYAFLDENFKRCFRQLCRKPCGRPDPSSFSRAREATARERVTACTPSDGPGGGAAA

CSC1OC(COCc2ccc(-c3ccccc3)cc2)C(O)C(OCc2ccccc2)C1NC(=O)CCCN (stereo not shown) [compound 258]
A1: inhibition of radioligand binding ([1]; FlashPlate): − (“−” indicates less than 50% inhibition at 10 μM) | A8: inhibition of radioligand binding ([2]; filtration): + (“+” indicates greater than 50% inhibition at 10 μM) | A6: inhibition of radioligand binding ([3]; [125I]-S36057, FlashPlate): − (“−” indicates less than 50% inhibition at 10 μM) | A9: inhibition of radioligand binding ([4]; FlashPlate): − (“−” indicates less than 50% inhibition at 10 μM) | A4: inhibition of radioligand binding ([5]; FlashPlate): − (“−” indicates less than 50% inhibition at 10 μM) | A10: inhibition of radioligand binding ([6]; FlashPlate): − (“−” indicates less than 50% inhibition at 10 μM) | A7: inhibition of radioligand binding ([7]; FlashPlate): − (“−” indicates less than 50% inhibition at 10 μM) | A2: inhibition of radioligand binding ([8]; filtration): − (“−” indicates less than 50% inhibition at 10 μM) | A11: inhibition of radioligand binding ([9]; FlashPlate): − (“−” indicates less than 50% inhibition at 10 μM) | A5: inhibition of radioligand binding ([10]; FlashPlate): − (“−” indicates less than 50% inhibition at 10 μM) | A3: inhibition of radioligand binding ([11]; FlashPlate): − (“−” indicates less than 50% inhibition at 10 μM)

N=C(N)NCCC(=O)NC1C(OCc2ccc(Cl)cc2)OC(COCc2ccc(Cl)cc2)C(O)C1OCc1ccc2ccccc2c1 (stereo not shown) [compound 431]
A1: inhibition of radioligand binding ([1]; human DOP membranes): − (“−” indicates less than 50% inhibition at 10 μM) | A8: inhibition of radioligand binding ([2]; human NK1 membranes): + (“+” indicates greater than 50% inhibition at 10 μM) | A6: inhibition of radioligand binding ([3]; [125I]-S36057, human MCH1 membranes): + (“+” indicates greater than 50% inhibition at 10 μM) | A9: inhibition of radioligand binding ([4]; human NPY-Y1 membranes): − (“−” indicates less than 50% inhibition at 10 μM) | A4: inhibition of radioligand binding ([5]; human MC4 membranes): + (“+” indicates greater than 50% inhibition at 10 μM) | A10: inhibition of radioligand binding ([6]; human ORL1 membranes): + (“+” indicates greater than 50% inhibition at 10 μM) | A7: inhibition of radioligand binding ([7]; human MOP membranes): − (“−” indicates less than 50% inhibition at 10 μM) | A2: inhibition of radioligand binding ([8]; human KOP membranes): − (“−” indicates less than 50% inhibition at 10 μM) | A11: inhibition of radioligand binding ([9]; mouse mUR2 membranes): − (“−” indicates less than 50% inhibition at 10 μM) | A5: inhibition of radioligand binding ([10]; human MC5 membranes): + (“+” indicates greater than 50% inhibition at 10 μM) | A3: inhibition of radioligand binding ([11]; human MC3 membranes): + (“+” indicates greater than 50% inhibition at 10 μM)

NCCC(=O)NC1C(OCc2ccccc2)OC(COCc2ccc(Cl)cc2)C(O)C1OCc1ccccc1 (stereo not shown) [compound 371]
A1: inhibition of radioligand binding, human δ-opioid (DOP) [1]: − (“−” indicates less than 50% inhibition at 10 μM) | A8: inhibition of radioligand binding, human neurokinin (NK1) [2]: + (“+” indicates greater than 50% inhibition at 10 μM) | A6: inhibition of radioligand binding, human melanin-concentrating hormone (MCH1) ([3]; [125I]-S36057): − (“−” indicates less than 50% inhibition at 10 μM) | A9: inhibition of radioligand binding, human neuropeptide Y (NPY-Y1) [4]: − (“−” indicates less than 50% inhibition at 10 μM) | A4: inhibition of radioligand binding, human melanocortin (MC4) [5]: − (“−” indicates less than 50% inhibition at 10 μM) | A10: inhibition of radioligand binding, human opioid (ORL1) [6]: − (“−” indicates less than 50% inhibition at 10 μM) | A7: inhibition of radioligand binding, human μ-opioid (MOP) [7]: − (“−” indicates less than 50% inhibition at 10 μM) | A2: inhibition of radioligand binding, human κ-opioid (KOP) [8]: − (“−” indicates less than 50% inhibition at 10 μM) | A11: inhibition of radioligand binding, mouse urotensin (mUR2) [9]: − (“−” indicates less than 50% inhibition at 10 μM) | A5: inhibition of radioligand binding, human melanocortin (MC5) [10]: − (“−” indicates less than 50% inhibition at 10 μM) | A3: inhibition of radioligand binding, human melanocortin (MC3) [11]: − (“−” indicates less than 50% inhibition at 10 μM)

NCCCC(=O)NC1C(OCc2ccc3ccccc3c2)OC(COCc2ccc(Cl)cc2)C(O)C1OCc1ccc(Cl)cc1 (single isomer, unassigned) [compound 458]
A1: inhibition of radioligand binding ([1]; human DOP membranes): − (“−” indicates less than 50% inhibition at 10 μM) | A8: inhibition of radioligand binding ([2]; human NK1 membranes): + (“+” indicates greater than 50% inhibition at 10 μM) | A6: inhibition of radioligand binding ([3]; [125I]-S36057, human MCH1 membranes, 10 µM): + (“+” indicates greater than 50% inhibition at 10 μM) | A9: inhibition of radioligand binding ([4]; human NPY-Y1 membranes): − (“−” indicates less than 50% inhibition at 10 μM) | A4: inhibition of radioligand binding ([5]; human MC4 membranes): + (“+” indicates greater than 50% inhibition at 10 μM) | A10: inhibition of radioligand binding ([6]; human ORL1 membranes, 10 µM): + (“+” indicates greater than 50% inhibition at 10 μM) | A7: inhibition of radioligand binding ([7]; human MOP membranes, 10 µM): + (“+” indicates greater than 50% inhibition at 10 μM) | A2: inhibition of radioligand binding ([8]; human KOP membranes): − (“−” indicates less than 50% inhibition at 10 μM) | A11: inhibition of radioligand binding ([9]; mouse mUR2 membranes): − (“−” indicates less than 50% inhibition at 10 μM) | A5: inhibition of radioligand binding ([10]; human MC5 membranes): + (“+” indicates greater than 50% inhibition at 10 μM) | A3: inhibition of radioligand binding ([11]; human MC3 membranes): + (“+” indicates greater than 50% inhibition at 10 μM)

COC[C@H]1OC(OCc2cccc(O)c2)[C@H](NC(=O)CCCN)[C@@H](OCc2ccc(-c3ccccc3)cc2)[C@@H]1O (stereo partly shown) [compound 143]
A1 radioligand binding, percentage inhibition [1]: − (“−” indicates less than 50% inhibition at 10 μM) | A8 radioligand binding, percentage inhibition [2]: + (“+” indicates greater than 50% inhibition at 10 μM) | A6 radioligand binding, percentage inhibition ([3]; [125I]-S36057): − (“−” indicates less than 50% inhibition at 10 μM) | A9 radioligand binding, percentage inhibition [4]: − (“−” indicates less than 50% inhibition at 10 μM) | A4 radioligand binding, percentage inhibition [5]: − (“−” indicates less than 50% inhibition at 10 μM) | A10 radioligand binding, percentage inhibition [6]: − (“−” indicates less than 50% inhibition at 10 μM) | A7 radioligand binding, percentage inhibition [7]: + (“+” indicates greater than 50% inhibition at 10 μM) | A2 radioligand binding, percentage inhibition [8]: − (“−” indicates less than 50% inhibition at 10 μM) | A11 radioligand binding, percentage inhibition [9]: − (“−” indicates less than 50% inhibition at 10 μM) | A5 radioligand binding, percentage inhibition [10]: − (“−” indicates less than 50% inhibition at 10 μM) | A3 radioligand binding, percentage inhibition [11]: − (“−” indicates less than 50% inhibition at 10 μM)
